Results from the METLIN SMRT retention time set (Domingo-Almenara et al. 2019).

Assay: gradient 5% acetonitrile 3 min, to 50% in 2 min, to 85% in 15 min, held 3 min, 100 µL/min
Details: column: Zorbax Extend-C18 2.1 x 50 mm; eluents: water / acetonitrile, 0.1% formic acid
Summary of the method: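 In both positive and negative ionization mode, a quadrupole time-of-flight mass spectrometer coupled to HPLC analyzed pure standards run in mixtures of ~100 molecules. The Zorbax Extend-C18 column (2.1 × 50 mm, 1.8 μm) was operated at 100 μL/min with water and acetonitrile, each containing 0.1% formic acid. The dead volume was 40 μL and the dwell volume 900 μL. Retention time came from adduct peaks that were computationally picked and individually inspected by hand.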

RP-LC retention time [s] | SMILES
722 | CCN1CCN(S(=O)(=O)c2cccc(-c3nc(-c4ccccc4)no3)c2)CC1
896 | Cc1ccc(S(=O)(=O)N2CCCC2CNC(=O)c2ccc(F)c(F)c2)cc1 (stereo not given)
942 | COc1cccc(CNC(=O)C2(C)CCCN(C(=O)Nc3ccc(Cl)cc3)C2)c1 (stereo not given)
815 | CCOc1ccc(C(=O)N2CCN(S(=O)(=O)c3cc4c5c(c3)CCC(=O)N5CCC4)CC2)cc1
686 | CCNC(=O)Nc1ccc(OCC(=O)NC(C)c2cccc(OC)c2)nc1 (stereo not given)
630 | Cn1cc(CCN2CCC(C(=O)NCc3cccc(Cl)c3)CC2)c2cccnc21
1010 | O=C(Nc1ccc2c(c1)OCCO2)C(=O)c1cn(CC(=O)N2CCCCC2)c2ccccc12
678 | COc1ccc(NC(=O)NCC(c2cccnc2)c2cn(C)c3ccccc23)cc1 (stereo not given)
890 | COc1ccccc1N1CCN(c2cc(SCC(=O)Nc3ccc(C#N)cc3)ncn2)CC1
811 | CCc1nnc(-c2ccc3ccn(CC(=O)Nc4ccc5c(c4)OCCO5)c3c2)o1
881 | Cc1cccc(N2CCN(C(=O)C3CCN(c4cnc5nccnc5c4)CC3)CC2)c1C
1040 | COc1ccc(S(=O)(=O)N2CCCC(C(=O)Nc3cc(C)ccc3C)C2)cc1Cl (stereo not given)
933 | Cc1[nH]c(C(=O)Nc2ccccc2F)c(C)c1S(=O)(=O)N1CCCCC1
730 | O=C(Nc1cccc(-c2ccc(N3CCOCC3)nn2)c1)Nc1ccccc1Cl
787 | COc1ccc(NC(=O)Nc2cccn3c(C4CCC4)nnc23)c(C)c1
795 | CC(=O)c1ccc(NC(=O)Cc2csc3nc(-c4ccc(C)c(C)c4)cn23)cc1
653 | Cn1nc(C(=O)N2CCOCC2)c2c1CCN(C(=O)Nc1ccc(F)cc1F)C2
617 | COc1ccc(CC(=O)Nc2ccc(Nc3cc(OC)nc(C)n3)cc2)cc1
660 | O=C(NCc1ccc(F)cc1F)C1CCCN(c2cn[nH]c(=O)c2)C1 (stereo not given)

RP-LC retention time [s] | SMILES
756 | Cn1nc(C(=O)N2CCCC(C(=O)Nc3ccccc3)C2)c2c1CCN(C(=O)c1cccc(F)c1)C2 (stereo not given)
752 | Cc1ccc(S(=O)(=O)N2CCC(C(=O)NCc3cscn3)CC2)c(C)c1
770 | Cc1cc(C)cc(C(=O)NC2CCN(c3cc(-c4ccccc4)[nH]n3)C2)c1 (stereo not given)
939 | CN(Cc1ccccc1)C(=O)CN1C(=O)C2CCCCN2c2ccc(S(=O)(=O)N(C)C)cc21 (stereo not given)
817 | Cc1cc(F)ccc1NC(=O)CN1C(=O)CCCc2cc(S(=O)(=O)N3CCCC3)ccc21
1050 | COc1ccc(C)cc1NC(=O)Cn1c(=O)cc(-c2nc(C3CC3)no2)c2ccccc21
621 | CCc1nc2c(c(=O)n1CC(=O)NC1CCCC1)CN(Cc1ccccc1)CC2
991 | O=S(=O)(c1ccc2c(c1)CCCC2)N1CCN(Cc2nnnn2-c2ccccc2)CC1
674 | Cc1ccc(NC(=O)N2CCN(c3cnn4c(C)nnc4c3)CC2)cc1Cl
931 | CCOC(=O)CNC(=O)N1CCCCCC1c1cccc(C)c1 (stereo not given)
743 | COc1ccccc1OCC(=O)Nc1ccc2c(c1)CN(C(=O)C1CC1)CC2
951 | CCOc1ccc(NC(=O)CN2C(=O)CC(c3cccs3)=Nc3ccccc32)cc1
1120 | COC(=O)c1ccccc1Nc1c(-c2ccc(F)cc2)nc2cnc(Br)cn12
1220 | COc1ccccc1-c1csc(-c2nnn(-c3ccc(C)c(C)c3)c2N)n1
1020 | CCOC(=O)c1cc(S(=O)(=O)N2CCCC2C(=O)Nc2ccc(C)c(C)c2)cn1C (stereo not given)
853 | O=C(NCC1CCN(C(=O)Oc2ccccc2)CC1)C(=O)Nc1ccc2c(c1)OCCO2
608 | Cc1oc(-c2ccc(C(=O)N3CCN(C)CC3)cc2)nc1CS(=O)(=O)c1ccccc1
1020 | COc1ccccc1NC(=O)Cn1cccc1-c1nnc(-c2ccccc2)o1
589 | Cc1ccc(NC(=O)N2CCC(CCN)CC2)cc1

The next lines start with the molecule.

SMILES | RP-LC retention time [s]
Cn1c(=O)n(C2CCN(Cc3ccsc3)CC2)c2ncncc21 | 552
O=C(O)Cn1c(-c2cccnc2)nc2ccccc21 | 564
Cc1cc(-c2csc(S(=O)(=O)N(Cc3cccs3)C3CCCC3)c2)on1 | 1190
Cc1ccc(NC(=O)N2C[C@H](c3nc(-c4ccncc4)no3)[C@@H](C)C2)c(C)c1 | 797
O=C1COc2ccc(Cl)cc2N1Cc1nc(-c2ccc3c(c2)OCO3)no1 | 1040
CNc1cc(-c2ccccc2)[nH]n1 | 553
CN(C)c1cc(-n2cnc(C(=O)Nc3ccc4c(c3)OCO4)c2)ncn1 | 774
O=C(NCCn1c(=O)n(Cc2ccccc2)c2cccnc21)c1ccsc1 | 750
Cc1cc(C)cc(NC(=O)N(C)CCc2noc(COc3ccccc3)n2)c1 | 949
CCNc1cc(N2CCCC(CCC(=O)N3CCC(C)CC3)C2)ncn1 (stereo not given) | 676
CCc1cccc(C)c1Nc1c(-c2ccc(OC)cc2)nc2nc(C)cc(C)n12 | 781
Cc1nc(N2CCCC(C(=O)NC(C)C)C2)c2c(C)c(C)oc2n1 (stereo not given) | 712
Cc1nc(C)c(-c2nnc(NC(=O)c3ccc(F)cc3F)o2)s1 | 663
O=C(C1CCCCC1)N1CC(c2nc(-c3ccccc3)no2)C2(CCOCC2)C1 (stereo not given) | 963
O=C(N1CCC(NS(=O)(=O)Cc2ccccc2F)CC1)N1C[C@H]2C[C@H](C1)[C@H]1CCCC(=O)N1C2 | 689
CCn1ccc2sc(C)c(C(=O)NCCOC)c2c1=O | 610
Cc1ccsc1-c1nnc(CC(=O)N2CCN(Cc3ccc4c(c3)OCO4)CC2)o1 | 640
Cc1nc(-n2cccc2)sc1C(=O)N1CC(c2nc(-c3cccc(Cl)c3)no2)C1 | 1110
Cc1noc(C2(NC(=O)Cc3ccc(F)cc3)CCCCC2)n1 | 837
CCOC(=O)C(CC)n1cccc1-c1nc(-c2cccnc2)no1 (stereo not given) | 1010
O=C(CSc1ccncc1)NCc1cc(-c2ccco2)on1 | 552
CCc1cccc(C)c1Nc1c(-c2ccc(SC)cc2)nc2ncccn12 | 916
O=C(Cn1cccc(-c2nc(-c3ccc(Br)cc3)no2)c1=O)Nc1cccc(F)c1 | 992
CCn1c(=O)oc2cc(-c3noc(-c4ccc(OC)c(OC)c4)n3)ccc21 | 990
Cc1ccc2cc(CN3CCC4(CC3)CC(O)CCO4)c(=O)[nH]c2c1 (stereo not given) | 562
Cc1ccc(CNC(=O)C2CCN(c3cncnc3N3CCOCC3)CC2)o1 | 605

SMILES | RP-LC retention time [s]
O=C(CSc1ncn[nH]1)c1ccc2c(c1)OCCO2 | 626
Cc1nc2c(ccc3nc(NC(=O)c4cc(=O)c5ccccc5o4)sc32)s1 | 828
COc1ccc(S(=O)(=O)CCc2noc(C(=O)N3CCC4(CC3)OCCO4)n2)cc1 | 763
O=C(Nc1ccc(-c2cn3cccnc3n2)cc1)c1cc(Br)ccc1Cl | 707
COCCN1C(=O)c2ccccc2C(C(=O)NCCCN2CC(C)CC(C)C2)C1c1cccs1 (stereo not given) | 670
Cc1nnc(C2CCCCCN2C(=O)c2occc2C)o1 (stereo not given) | 718
Cc1nccn1Cc1nc(-c2ccc(F)cc2)no1 | 614
CC(=O)Nc1cc2c(cc1Sc1ccc(C)cc1)n(C)c(=O)n2C | 785
Cc1nn(-c2ccccc2)c2c1N(CCCC(=O)NCCN(C)C)C(=O)CS2 | 602
CC(NC(=O)CN1c2ccc(F)cc2-c2ccccc2S1(=O)=O)c1ccccc1 (stereo not given) | 937
O=C(Nc1cc(-c2cccs2)no1)c1ccc(F)cc1 | 948
CCc1nnc(-c2ccc(S(=O)(=O)N3CCN(CC(C)C)CC3)o2)o1 | 612
CCNc1cc(N2CCCC(CCC(=O)N(C)Cc3cn(C)nc3C)C2)ncn1 (stereo not given) | 598
CCN1CCN(S(=O)(=O)c2ccc(Cl)c(-c3nnc(-c4ccc(OC)cc4)o3)c2)CC1 | 677
O=C1NC(Cc2c[nH]c3ccccc23)C(=O)N1c1cccc(Cl)c1 (stereo not given) | 790
CC(NC(=O)c1ccc(-c2cccs2)nc1)c1ccccc1 (stereo not given) | 910
CCCS(=O)(=O)N1CCC(F)(c2nc(-c3ccccc3)no2)CC1 | 1080
O=C(Cc1ccsc1)N1CCC([C@@H]2CNC[C@H]2CO)CC1 | 568
CNC(=O)c1cc(-c2ccc(OC)cc2)n(C)c1C | 783
CC(C)NC(=O)c1c2c(nc3ccc(F)cc13)CCCC2 | 631
CCOc1nccnc1N1CCC(N(C)C(=O)c2ccc(C)nc2)C1 (stereo not given) | 597
O=c1n(CC2CC2)nc2n1CCC(NS(=O)(=O)Cc1ccccc1F)CC2 (stereo not given) | 706
CC(=O)c1cccc(NC(=O)c2nn(C)c(C(F)(F)F)c2Cl)c1 | 924
O=C(NCCOC(=O)c1ccco1)C(=O)Nc1nc(-c2ccccc2)cs1 | 887
O=C(CCc1c(-c2ccccc2)nc2ccccn12)Nc1ccc(Cl)cc1F | 715
O=C(c1ccc2[nH]ccc2c1)N1CCCN(C2CCN(CC3CC3)C2=O)CC1 (stereo not given) | 888
